In the supplement of paper PMC10627819:

Experiments:
S. pneumoniae D39V [1] = assay: Bliss interaction score (quartile over a dose matrix) (fitness difference); higher = more antagonism (negative = synergy)
Procedure, shortened: (§1)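 Fitness was defined as normalised growth: OD595 at the start of stationary phase divided by the plate's robust no-drug mean and capped at 1. Single-drug fitness was inferred from combination measurements. The Bliss score is observed fitness minus the product of the single-drug values, summarised by quartiles across technical, biological and donor/recipient replicates.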

S. aureus DSM 20231 [2] = assay: as above
Procedure, shortened: as §1

S. aureus Newman [3] = assay: as above
Procedure, shortened: as §1

B. subtilis 168 [4] = assay: as above
Procedure, shortened: as §1

S. pneumoniae D39V [5] = assay: fitness (endpoint OD595 vs no drug) (fraction); higher = more growth
Procedure, shortened: (§2)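 Bacterial fitness was scored as optical density at the stationary-phase transition relative to the robust mean of no-drug control wells. Scores are capped at 1. The growth data were OD595 readings every 30 min for 14 h at 37 °C, background-subtracted against the first reading, from 384-well plates inoculated at OD595 0.01 in TSB, LB Lennox or CY.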

S. aureus DSM 20231 [6] = assay: as above
Procedure, shortened: as §2

S. aureus Newman [7] = assay: as above
Procedure, shortened: as §2

B. subtilis 168 [8] = assay: as above
Procedure, shortened: as §2

[9] = first compound 0.625 µg/mL, partner 1.25 µg/mL
[10] = first compound 0.625 µg/mL, partner 2.5 µg/mL
[11] = first compound 0.625 µg/mL, partner 5 µg/mL
[12] = first compound 1.25 µg/mL, partner 1.25 µg/mL
[13] = first compound 1.25 µg/mL, partner 2.5 µg/mL
[14] = first compound 1.25 µg/mL, partner 5 µg/mL
[15] = first compound 2.5 µg/mL, partner 1.25 µg/mL
[16] = first compound 2.5 µg/mL, partner 2.5 µg/mL
[17] = first compound 2.5 µg/mL, partner 5 µg/mL
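Throughout, for Bliss interaction score (quartile over a dose matrix): first quartile when negative (synergy) and third quartile when positive (antagonism).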
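Throughout, for fitness (endpoint OD595 vs no drug): OD595 on entry to stationary phase over no-drug wells; at most 1.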

SMILES: COc1cccc2c1C(=O)c1c(O)c3c(c(O)c1C2=O)C[C@@](O)(C(=O)CO)C[C@@H]3O[C@H]1C[C@H](N)[C@H](O)[C@H](C)O1 [Doxorubicin] + CN1C2=CC=CC=C2N=C3C1=CC=CC3=O [Pyocyanin]
- Bliss interaction score (S. pneumoniae D39V [1]): 0.0322
- Bliss interaction score (S. aureus DSM 20231 [2]): -0.0672
- Bliss interaction score (S. aureus Newman [3]): -0.0556
- Bliss interaction score (B. subtilis 168 [4]): 0.0456
- fitness (S. pneumoniae D39V [5]; first compound 0.25 µg/mL, partner 0.325 µg/mL): 0.986
- fitness (S. pneumoniae D39V [5]; first compound 0.25 µg/mL, partner 0.65 µg/mL): 0.92
- fitness (S. pneumoniae D39V [5]; first compound 0.25 µg/mL, partner 1.3 µg/mL): 0.766
- fitness (S. pneumoniae D39V [5]; first compound 0.5 µg/mL, partner 0.325 µg/mL): ≥ 1
- fitness (S. pneumoniae D39V [5]; first compound 0.5 µg/mL, partner 0.65 µg/mL): 0.938
- fitness (S. pneumoniae D39V [5]; first compound 0.5 µg/mL, partner 1.3 µg/mL): 0.773
- fitness (S. pneumoniae D39V [5]; first compound 1 µg/mL, partner 0.325 µg/mL): 0.942
- fitness (S. pneumoniae D39V [5]; first compound 1 µg/mL, partner 0.65 µg/mL): 0.868
- fitness (S. pneumoniae D39V [5]; first compound 1 µg/mL, partner 1.3 µg/mL): 0.729
- fitness (S. aureus DSM 20231 [6]; [9]): 0.863
- fitness (S. aureus DSM 20231 [6]; [10]): 0.827
- fitness (S. aureus DSM 20231 [6]; [11]): 0.578
- fitness (S. aureus DSM 20231 [6]; [12]): 0.857
- fitness (S. aureus DSM 20231 [6]; [13]): 0.865
- fitness (S. aureus DSM 20231 [6]; [14]): 0.641
- fitness (S. aureus DSM 20231 [6]; [15]): 0.744
- fitness (S. aureus DSM 20231 [6]; [16]): 0.699
- fitness (S. aureus DSM 20231 [6]; [17]): 0.487
- fitness (S. aureus Newman [7]; [9]): 0.733
- fitness (S. aureus Newman [7]; [10]): 0.687
- fitness (S. aureus Newman [7]; [11]): 0.438
- fitness (S. aureus Newman [7]; [12]): 0.716
- fitness (S. aureus Newman [7]; [13]): 0.639
- fitness (S. aureus Newman [7]; [15]): 0.674
- fitness (S. aureus Newman [7]; [16]): 0.584
- fitness (B. subtilis 168 [8]; [9]): 0.888
- fitness (B. subtilis 168 [8]; [10]): 0.878
- fitness (B. subtilis 168 [8]; [11]): 0.684
- fitness (B. subtilis 168 [8]; [12]): 0.853
- fitness (B. subtilis 168 [8]; [13]): 0.841
- fitness (B. subtilis 168 [8]; [14]): 0.625
- fitness (B. subtilis 168 [8]; [15]): 0.631
- fitness (B. subtilis 168 [8]; [16]): 0.54

SMILES: Cc1ncc([N+](=O)[O-])n1CCO [Metronidazole] + CN1C2=CC=CC=C2N=C3C1=CC=CC3=O [Pyocyanin]
- Bliss interaction score (S. pneumoniae D39V [1]): 0.0391
- Bliss interaction score (S. aureus DSM 20231 [2]): 0.0663
- Bliss interaction score (S. aureus Newman [3]): 0.0796
- Bliss interaction score (B. subtilis 168 [4]): -0.0539
- fitness (S. pneumoniae D39V [5]; first compound 1.073 µg/mL, partner 0.325 µg/mL): ≥ 1
- fitness (S. pneumoniae D39V [5]; first compound 1.073 µg/mL, partner 0.65 µg/mL): ≥ 1
- fitness (S. pneumoniae D39V [5]; first compound 1.073 µg/mL, partner 1.3 µg/mL): 0.795
- fitness (S. pneumoniae D39V [5]; first compound 1.25 µg/mL, partner 0.325 µg/mL, one replicate): ≥ 1
- fitness (S. pneumoniae D39V [5]; first compound 1.25 µg/mL, partner 0.65 µg/mL, one replicate): ≥ 1
- fitness (S. pneumoniae D39V [5]; first compound 2.145 µg/mL, partner 0.325 µg/mL): 0.958
- fitness (S. pneumoniae D39V [5]; first compound 2.145 µg/mL, partner 0.65 µg/mL): 0.98
- fitness (S. pneumoniae D39V [5]; first compound 2.145 µg/mL, partner 1.3 µg/mL): 0.731
- fitness (S. pneumoniae D39V [5]; first compound 2.5 µg/mL, partner 0.325 µg/mL, one replicate): ≥ 1
- fitness (S. pneumoniae D39V [5]; first compound 2.5 µg/mL, partner 0.65 µg/mL, one replicate): ≥ 1
- fitness (S. pneumoniae D39V [5]; first compound 4.29 µg/mL, partner 0.325 µg/mL): 0.98
- fitness (S. pneumoniae D39V [5]; first compound 4.29 µg/mL, partner 0.65 µg/mL): 0.95
- fitness (S. pneumoniae D39V [5]; first compound 4.29 µg/mL, partner 1.3 µg/mL): 0.815
- fitness (S. pneumoniae D39V [5]; first compound 5 µg/mL, partner 0.325 µg/mL, one replicate): ≥ 1
- fitness (S. pneumoniae D39V [5]; first compound 5 µg/mL, partner 0.65 µg/mL, one replicate): ≥ 1
- fitness (S. aureus DSM 20231 [6]; [9]): 0.948
- fitness (S. aureus DSM 20231 [6]; [10]): 0.916
- fitness (S. aureus DSM 20231 [6]; [11]): 0.621
- fitness (S. aureus DSM 20231 [6]; [12]): 0.996
- fitness (S. aureus DSM 20231 [6]; [13]): 0.97
- fitness (S. aureus DSM 20231 [6]; [14]): 0.645
- fitness (S. aureus DSM 20231 [6]; [15]): ≥ 1
- fitness (S. aureus DSM 20231 [6]; [16]): 0.961
- fitness (S. aureus DSM 20231 [6]; [17]): 0.686
- fitness (S. aureus Newman [7]; [9]): 0.881
- fitness (S. aureus Newman [7]; [10]): 0.831
- fitness (S. aureus Newman [7]; first compound 0.781 µg/mL, partner 1.25 µg/mL, one replicate): 0.808
- fitness (S. aureus Newman [7]; first compound 0.781 µg/mL, partner 2.5 µg/mL, one replicate): 0.795
- fitness (S. aureus Newman [7]; first compound 0.781 µg/mL, partner 5 µg/mL, one replicate): 0.376
- fitness (S. aureus Newman [7]; [12]): 0.905
- fitness (S. aureus Newman [7]; [13]): 0.834
- fitness (S. aureus Newman [7]; first compound 1.562 µg/mL, partner 1.25 µg/mL, one replicate): 0.785
- fitness (S. aureus Newman [7]; first compound 1.562 µg/mL, partner 2.5 µg/mL, one replicate): 0.768
- fitness (S. aureus Newman [7]; first compound 1.562 µg/mL, partner 5 µg/mL, one replicate): 0.425
- fitness (S. aureus Newman [7]; [16]): 0.802
- fitness (S. aureus Newman [7]; [17]): 0.258
- fitness (S. aureus Newman [7]; first compound 3.124 µg/mL, partner 1.25 µg/mL, one replicate): 0.771
- fitness (S. aureus Newman [7]; first compound 3.124 µg/mL, partner 2.5 µg/mL, one replicate): 0.78
- fitness (S. aureus Newman [7]; first compound 3.124 µg/mL, partner 5 µg/mL, one replicate): 0.418
- fitness (B. subtilis 168 [8]; [9]): 0.886
- fitness (B. subtilis 168 [8]; [10]): 0.867
- fitness (B. subtilis 168 [8]; [11]): 0.75
- fitness (B. subtilis 168 [8]; [12]): 0.884
- fitness (B. subtilis 168 [8]; [13]): 0.899
- fitness (B. subtilis 168 [8]; [14]): 0.743
- fitness (B. subtilis 168 [8]; [15]): 0.884
- fitness (B. subtilis 168 [8]; [16]): 0.896
- fitness (B. subtilis 168 [8]; [17]): 0.719
